Source: US20210161131A1, “cis-p-Menthane-1,8-Di-secondary Amine Compounds as well as Their Preparation Methods and Application in Weed Control” (RESEARCH INSTITUTE OF FORESTRY NEW TECHNOLOGY, CHINESE …, priority 2019, published 2021)

System: barnyard grass seeds
Assay: Petri dish seed germination method: inhibition of root and stem growth of barnyard grass
Assay type: in vivo
Settings: 96 hours incubation
Experimental: (§1) Step 2: Accurately weigh 1 mmol cis-p-menthane-1,8-di-Schiff base compounds and cis-p-menthane-1,8-di-secondary amine compounds respectively, dissolve each of them with 0.25 mL DMF, and add a drop of Tween 80 in each resulted solution. After being fully dissolved, each solution is transferred to a 100 mL volumetric flask respectively and then diluted to the mark with distilled water to obtain a solution with a concentration of 10 mmol/L as the mother liquor. The two-fold dilution method is used to prepare diluted solutions with a series of concentrations (the concentrations of DMF and Tween 80 in the diluted solutions are the same as those in the mother liquor).
(§2) Barnyard grass seeds are placed in a 28° C. incubator and are soaked in an appropriate amount of distilled water for 12 hours there. After the clean water is filtered out, the seeds are then placed in the 28° C. incubator for 24 hours to germinate. Spread 2 pieces of filter paper in each of several Petri dishes, and place 10 barnyard grass seeds with the same size in each dish. Repeat each treatment for three times The dishes are divided into two groups: test dishes and control dishes. Add into each test dish 10 mL of the sample solution with the corresponding concentration of the target compound, and add into each control dish the same amount of the mixture of water, DMF and Tween 80 as the blank control. Add 10 seeds to each of the dishes (both test dishes and control dishes), place them in an artificial climate incubator, and incubate them for 96 hours under a temperature of 28° C., an illumination of 5000 1×, a photoperiod of day:night=16:8 and a relative humidity of 70-80%. The experimental data is processed and analyzed with DPS software to calculate the inhibition rate (y) of cis-p-menthane-1,8-di-secondary amine compounds on the root growth or stem growth of barnyard grass seeds.
Wherein, y is the inhibition rate of root growth or stem growth (%), x0 is the root length or stem length of the control, and x1 is the root length or stem length of the sample.
as §1, with “Accurately” for “Step 2: Accurately”, “cis-p-menthane-1,8-bis-(4-chlorophenyl)Schiff” for “cis-p-menthane-1,8-di-Schiff”, “base” for “base compounds”, “cis-p-menthane-1,8-bis-(4-chlorobenzyl)amine” for “cis-p-menthane-1,8-di-secondary amine compounds”, “(5 mmol/L, 2.5 mmol/L, 1.25 mmol/L, 0.625 mmol/L, 0.3125 mmol/L and 0.1563 mmol/L; the” for “(the”
as §2, with “placed in a 30° C. incubator” for “placed in the 28° C. incubator”, “in each Petri dish,” for “in each of several Petri dishes,”, “each Petri dish, and place” for “several Petri dishes, and place”, “with the above corresponding concentration” for “with the corresponding concentration”, “with DPS software.” for “with DPS software to calculate the inhibition rate (y) of cis-p-menthane-1,8-di-secondary amine compounds on the root growth or stem growth of barnyard grass seeds.”

SMILES | inhibition rate on the stem growth of barnyard grass seeds (0.3125 mmol/L) [%] | inhibition rate on the root growth of barnyard grass seeds (0.625 mmol/L) [%] | inhibition rate on the stem growth of barnyard grass seeds (0.625 mmol/L) [%] | inhibition rate on the root growth of barnyard grass seeds (1.25 mmol/L) [%] | inhibition rate on the stem growth of barnyard grass seeds (1.25 mmol/L) [%] | inhibition rate on the root growth of barnyard grass seeds (2.5 mmol/L) [%] | inhibition rate on the stem growth of barnyard grass seeds (2.5 mmol/L) [%] | inhibition rate on the root growth of barnyard grass seeds (5 mmol/L) [%] | inhibition rate on the stem growth of barnyard grass seeds (5 mmol/L) [%] | inhibition rate on the root growth of barnyard grass seeds (0.15625 mmol/L) [%] | inhibition rate on the stem growth of barnyard grass seeds (0.15625 mmol/L) [%] | inhibition rate on the root growth of barnyard grass seeds (0.3125 mmol/L) [%]
CC1(N=Cc2ccc(C(F)(F)F)cc2)CCC(C(C)(C)N=Cc2ccc(C(F)(F)F)cc2)CC1 (stereo not drawn) [cis-p-menthane-1,8-bis-(4-trifluoromethylbenzyl)Schiff base, reference compound] | 20.6 | 0.8 | 30.9 | 17.5 | 14.6 | 7.1 | 19.5 | 48.4 | 31.1 |  |  | 
CC1(NCc2ccc(C(F)(F)F)cc2)CCC(C(C)(C)NCc2ccc(C(F)(F)F)cc2)CC1 (stereo not drawn) [cis-p-menthane-1,8-bis-(4-trifluoromethylbenzyl)amine] | 42.2 | 82.3 | 55.1 | 86.1 | 67.0 | 100.0 | 83.4 | 100.0 | 78.5 | 1.0 | 11.6 | 62.8
CC1(NCc2ccc(Br)o2)CCC(C(C)(C)NCc2ccc(Br)o2)CC1 (stereo not drawn) [cis-p-menthane-1,8-bis-(5-bromofuran-2-methyl)amine] | 5.6 | 54.8 | 11.6 | 61.5 | 30.3 | 84.4 | 50.5 | 90.7 | 71.8 | 42.2 | 10.1 | 39.6
Cc1ccc(CNC(C)(C)[C@H]2CC[C@@](C)(NCc3ccc(C)o3)CC2)o1 [cis-p-menthane-1,8-bis-(5-methylfuran-2-methyl)amine] | 12.5 | 24.7 | 6.8 | 50.3 | 17.1 | 64.4 | 36.5 | 95.5 | 79.8 | 23.1 | 7.2 | 41.3
